The subject of this test is P388 leukemia ip, CD2F1 mice, survival T/C. In words: NCI In Vivo Anticancer Drug Screen. Data for tumor model P388 Leukemia (intraperitoneal) in CD2F1 (CDF1) mice. To be noted: endpoint: median survival time, higher = longer survival. A digest of the protocol:
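Mice carrying the transplanted tumor received test compound or vehicle. Survival was recorded in each group, and the value is the treated-group measurement divided by that of the vehicle-treated control group.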

[1] abbreviates: dose: 25.0 mg/kg/injection, schedule: Q04DX003 (ip), vehicle: Klucel (hydroxypropylcellulose) (HPC).
Setting [2] is: dose: 60.0 mg/kg/injection, schedule: Q01DX005 (ip), vehicle: saline with Tween-80.
[3] abbreviates: dose: 120.0 mg/kg/injection, schedule: Q01DX005 (ip), vehicle: saline with Tween-80.
Where [4] appears, read: dose: 2.5 mg/kg/injection, schedule: Q01DX009 (ip), vehicle: saline + alcohol.
Where [5] appears, read: dose: 5.0 mg/kg/injection, schedule: Q01DX009 (ip), vehicle: saline + alcohol.
Where [6] appears, read: dose: 10.0 mg/kg/injection, schedule: Q01DX009 (ip), vehicle: saline + alcohol.
Setting [7] is: dose: 100.0 mg/kg/injection, schedule: Q04DX003 (ip), vehicle: saline with Tween-80.
Where [8] appears, read: dose: 25.0 mg/kg/injection, schedule: Q01DX005 (ip), vehicle: saline.

Values joined by “and” are separate entries in the source; they are usually repeats but may differ in a detail not shown here. Identical values can stand only once. Toxic doses and inconclusive results are not listed.

Turning to `CN(C)C[N+](C)(C)Cc1ccc(C[N+](C)(C)C[N+](C)(C)Cc2ccc(CCl)cc2)cc1`, the T/C was 100 % of control (dose: 0.19 mg/kg/injection, schedule: Q04DX003 (ip), vehicle: saline); 94 % of control (dose: 0.39 mg/kg/injection, schedule: Q04DX003 (ip), vehicle: saline); 103 % of control and 88 % of control (dose: 0.78 mg/kg/injection, schedule: Q04DX003 (ip), vehicle: saline); 88 % of control (dose: 1.56 mg/kg/injection, schedule: Q04DX003 (ip), vehicle: saline); 99 % of control (dose: 3.12 mg/kg/injection, schedule: Q04DX003 (ip), vehicle: saline).
For the molecule `Cc1cc2cc(Cl)c(CN)cc2[nH]1`, the T/C was 97 % of control under setting [1]; 102 % of control (dose: 50.0 mg/kg/injection, schedule: Q04DX003 (ip), vehicle: Klucel (hydroxypropylcellulose) (HPC)); 105 % of control and 107 % of control (dose: 100.0 mg/kg/injection, schedule: Q04DX003 (ip), vehicle: Klucel (hydroxypropylcellulose) (HPC)).
Turning to `O=c1cc(C(F)(F)F)c2cc3c(cc2o1)NCCC3`, the T/C by setting is: under setting [2], 89 % of control; under setting [3], 86 % of control.
In the case of `CC1=CC(=O)C(O)C2(C)C1CC1OC(=O)C=C3C(C)(C4OC(=O)CC4CO)CC(O)C2C31C` (stereo unspecified), the T/C is 92 % of control under setting [4]; 98 % of control under setting [5]; 108 % of control under setting [6]; 101 % of control (dose: 20.0 mg/kg/injection, schedule: Q01DX009 (ip), vehicle: saline + alcohol).
Regarding `O=C1c2c(O)ccc(O)c2C(=O)c2c(NCCN(CCO)Cc3ccccc3)ccc(NCCN(CCO)Cc3ccccc3)c21`, the T/C (dose: 0.62 mg/kg/injection, schedule: Q01DX009 (ip), vehicle: saline with Tween-80) is 118 % of control; the T/C (dose: 1.25 mg/kg/injection, schedule: Q01DX009 (ip), vehicle: saline with Tween-80) was 106 % of control; the T/C (dose: 2.5 mg/kg/injection, schedule: Q01DX009 (ip), vehicle: saline with Tween-80) was 97 % of control; the T/C (dose: 5.0 mg/kg/injection, schedule: Q01DX009 (ip), vehicle: saline with Tween-80) was 109 % of control; the T/C (dose: 10.0 mg/kg/injection, schedule: Q01DX009 (ip), vehicle: saline with Tween-80) is 86 % of control; the T/C (dose: 20.0 mg/kg/injection, schedule: Q01DX009 (ip), vehicle: saline with Tween-80) was 103 % of control. The T/C is, setting by setting: (dose: 40.0 mg/kg/injection, schedule: Q01DX009 (ip), vehicle: distilled water + Tween-80) 101 % of control; (dose: 40.0 mg/kg/injection, schedule: Q01DX009 (ip), vehicle: saline with Tween-80) 103 % of control; (dose: 80.0 mg/kg/injection, schedule: Q01DX009 (ip), vehicle: distilled water + Tween-80) 123 % of control; (dose: 80.0 mg/kg/injection, schedule: Q01DX009 (ip), vehicle: saline with Tween-80) 106 % of control; (dose: 160.0 mg/kg/injection, schedule: Q01DX009 (ip), vehicle: distilled water + Tween-80) 166 % of control; (dose: 160.0 mg/kg/injection, schedule: Q01DX009 (ip), vehicle: saline with Tween-80) 163 % of control. Further, the T/C (dose: 320.0 mg/kg/injection, schedule: Q01DX009 (ip), vehicle: distilled water + Tween-80) is 194 % of control.
For `Nc1nc(SCc2ccccc2Cl)c2[nH]cnc2n1`, the T/C under setting [7] was 100 % of control.
For `CN=C(N)N/N=C(\C)c1ccc2ccccc2c1`, the T/C runs as follows: (dose: 12.5 mg/kg/injection, schedule: Q04DX002 (ip), vehicle: saline) 103 % of control; (dose: 25.0 mg/kg/injection, schedule: Q04DX002 (ip), vehicle: saline) 101 % of control; (dose: 50.0 mg/kg/injection, schedule: Q04DX002 (ip), vehicle: saline) 112 % of control.
Turning to `O=C1CCSC(=O)N1c1ccccc1`, the T/C is 108 % of control (dose: 50.0 mg/kg/injection, schedule: Q01DX005 (ip), vehicle: saline with Tween-80); 100 % of control (dose: 100.0 mg/kg/injection, schedule: Q01DX005 (ip), vehicle: saline with Tween-80); 105 % of control (dose: 200.0 mg/kg/injection, schedule: Q01DX005 (ip), vehicle: saline with Tween-80).
Turning to `COc1ccc2c(N3CCN(C(=O)C(Cl)(Cl)Cl)CC3)cc(C)nc2c1`, the T/C is, setting by setting: under setting [2], 103 % of control; under setting [3], 104 % of control; (dose: 240.0 mg/kg/injection, schedule: Q01DX005 (ip), vehicle: saline with Tween-80) 102 % of control.
Consider `CC(=O)NCC[N+](C)(C)C`, for which the T/C runs as follows: (dose: 12.5 mg/kg/injection, schedule: Q01DX009 (ip), vehicle: saline) 100 % of control; (dose: 25.0 mg/kg/injection, schedule: Q01DX009 (ip), vehicle: saline) 108 % of control; (dose: 50.0 mg/kg/injection, schedule: Q01DX009 (ip), vehicle: saline) 99 % of control.
With `Oc1c(Cl)c(Cl)c(O)c(Cl)c1Cl`, the T/C (dose: 6.25 mg/kg/injection, schedule: Q04DX003 (ip), vehicle: Klucel (hydroxypropylcellulose) (HPC)) was 98 % of control; the T/C (dose: 12.5 mg/kg/injection, schedule: Q04DX003 (ip), vehicle: Klucel (hydroxypropylcellulose) (HPC)) is 99 % of control; the T/C under setting [1] was 98 % of control.
Regarding `Nc1ncnc2c1nc(N)n2C1OC(CO)C(O)C1O` (stereo unspecified), the T/C was 122 % of control (dose: 6.0 mg/kg/injection, schedule: Q01DX005 (ip), vehicle: saline) and 119 % of control under setting [8].
`COc1ccc(CCNC(=O)c2c3nc4c(C(=O)NCCc5ccc(OC)c(OC)c5)ccc(C)c4oc-3c(C)c(=O)c2N)cc1OC`: the T/C was 104 % of control (dose: 100.0 mg/kg/injection, schedule: Q04DX003 (ip), vehicle: saline + alcohol); 102 % of control (dose: 200.0 mg/kg/injection, schedule: Q04DX003 (ip), vehicle: saline + alcohol); 105 % of control (dose: 400.0 mg/kg/injection, schedule: Q04DX003 (ip), vehicle: saline + alcohol).
With `Cc1ccc(S(=O)(=O)N/N=C/C(N)=O)cc1`, the T/C is, setting by setting: (dose: 12.5 mg/kg/injection, schedule: Q01DX009 (ip), vehicle: other) 101 % of control; (dose: 25.0 mg/kg/injection, schedule: Q01DX009 (ip), vehicle: other) 101 % of control; (dose: 50.0 mg/kg/injection, schedule: Q01DX009 (ip), vehicle: other) 96 % of control; (dose: 100.0 mg/kg/injection, schedule: Q01DX009 (ip), vehicle: other) 104 % of control; (dose: 200.0 mg/kg/injection, schedule: Q01DX009 (ip), vehicle: other) 118 % of control; (dose: 400.0 mg/kg/injection, schedule: Q01DX009 (ip), vehicle: other) 101 % of control.
Turning to `COc1ccc(OC)c(C(=O)C[n+]2ccccc2)c1`, the T/C reads like this: (dose: 12.5 mg/kg/injection, schedule: Q04DX003 (ip), vehicle: saline) 95 % of control; (dose: 25.0 mg/kg/injection, schedule: Q04DX003 (ip), vehicle: saline) 90 % of control; (dose: 50.0 mg/kg/injection, schedule: Q04DX003 (ip), vehicle: saline) 100 % of control.
As for `Nc1nc2n(n1)C(=O)C(=O)N2`, the T/C is, setting by setting: (dose: 50.0 mg/kg/injection, schedule: Q04DX003 (ip), vehicle: saline with Tween-80) 100 % of control; under setting [7], 106 % of control; (dose: 200.0 mg/kg/injection, schedule: Q04DX003 (ip), vehicle: saline with Tween-80) 103 % of control; (dose: 400.0 mg/kg/injection, schedule: Q04DX003 (ip), vehicle: saline with Tween-80) 103 % of control.
As to `N#CCCC[n+]1cc2ccccc2c2ccccc21`, the T/C was 100 % of control under setting [8]; 101 % of control and 109 % of control (dose: 50.0 mg/kg/injection, schedule: Q01DX005 (ip), vehicle: saline); 105 % of control and 112 % of control (dose: 100.0 mg/kg/injection, schedule: Q01DX005 (ip), vehicle: saline).
With `COc1ccc(CC2=CC(=O)C(=O)C=C2C)cc1`, the T/C under setting [4] was 101 % of control, the T/C under setting [5] is 100 % of control and the T/C under setting [6] was 102 % of control.
For `Cc1ccc(S(=O)(=O)NC(=O)OC23COCN2COC3)cc1`, the T/C was 117 % of control (dose: 50.0 mg/kg/injection, schedule: Q01DX009 (ip), vehicle: saline with Tween-80) and 122 % of control (dose: 100.0 mg/kg/injection, schedule: Q01DX009 (ip), vehicle: saline with Tween-80).
As to `CC(=O)Oc1cc(OCCCc2ccc(F)cc2)cc2ccc3ccccc3c12`, the T/C was 92 % of control (dose: 100.0 mg/kg/injection, schedule: Q04DX002 (ip), vehicle: saline with Tween-80) and 92 % of control (dose: 400.0 mg/kg/injection, schedule: Q04DX002 (ip), vehicle: saline with Tween-80).

The values are drawn from PubChem BioAssay AID330 (DTP/NCI, 2004).
